From US10072017B2, “Compounds and methods for the treatment of cystic fibrosis” (Flatley Discovery Lab, LLC, priority 2015, dated 2018)

Molecular target: T1, CFTR (Homo sapiens, UniProt P13569, DEL508-508)
T1 construct: Primary CF airway epithelial cells were obtained from the UNC Cystic Fibrosis Tissue Procurement and Cell Culture Core; host or cells: primary CF airway epithelial cells
Assay: Equivalent current assay in Primary CF airway epithelial cells (NAUC)
Type: cell-based
Conditions: 24 h, normalized to VX809 (3 μM) positive control; for Nauc @ 3 μM: 3 μM test compound; for Nauc @ 10 μM: 10 μM test compound
How it was run: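 Primary CF airway epithelia differentiated ≥4 weeks at air-liquid interface, treated basolaterally 24 h at 37 °C with test compounds in combination with VX809, 0.1% DMSO vehicle. Equivalent current recorded after 5 μM benzamil, 10 μM forskolin plus 1 μM VX770, then CFTR-172/bumetanide 20 μM; vehicle-subtracted AUC normalized to 3 μM VX809 (NAUC), median of n≥4, sigmoid fit for EC50.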

T1 sequence (P13569 with tags, fused parts or gaps DEL508-508): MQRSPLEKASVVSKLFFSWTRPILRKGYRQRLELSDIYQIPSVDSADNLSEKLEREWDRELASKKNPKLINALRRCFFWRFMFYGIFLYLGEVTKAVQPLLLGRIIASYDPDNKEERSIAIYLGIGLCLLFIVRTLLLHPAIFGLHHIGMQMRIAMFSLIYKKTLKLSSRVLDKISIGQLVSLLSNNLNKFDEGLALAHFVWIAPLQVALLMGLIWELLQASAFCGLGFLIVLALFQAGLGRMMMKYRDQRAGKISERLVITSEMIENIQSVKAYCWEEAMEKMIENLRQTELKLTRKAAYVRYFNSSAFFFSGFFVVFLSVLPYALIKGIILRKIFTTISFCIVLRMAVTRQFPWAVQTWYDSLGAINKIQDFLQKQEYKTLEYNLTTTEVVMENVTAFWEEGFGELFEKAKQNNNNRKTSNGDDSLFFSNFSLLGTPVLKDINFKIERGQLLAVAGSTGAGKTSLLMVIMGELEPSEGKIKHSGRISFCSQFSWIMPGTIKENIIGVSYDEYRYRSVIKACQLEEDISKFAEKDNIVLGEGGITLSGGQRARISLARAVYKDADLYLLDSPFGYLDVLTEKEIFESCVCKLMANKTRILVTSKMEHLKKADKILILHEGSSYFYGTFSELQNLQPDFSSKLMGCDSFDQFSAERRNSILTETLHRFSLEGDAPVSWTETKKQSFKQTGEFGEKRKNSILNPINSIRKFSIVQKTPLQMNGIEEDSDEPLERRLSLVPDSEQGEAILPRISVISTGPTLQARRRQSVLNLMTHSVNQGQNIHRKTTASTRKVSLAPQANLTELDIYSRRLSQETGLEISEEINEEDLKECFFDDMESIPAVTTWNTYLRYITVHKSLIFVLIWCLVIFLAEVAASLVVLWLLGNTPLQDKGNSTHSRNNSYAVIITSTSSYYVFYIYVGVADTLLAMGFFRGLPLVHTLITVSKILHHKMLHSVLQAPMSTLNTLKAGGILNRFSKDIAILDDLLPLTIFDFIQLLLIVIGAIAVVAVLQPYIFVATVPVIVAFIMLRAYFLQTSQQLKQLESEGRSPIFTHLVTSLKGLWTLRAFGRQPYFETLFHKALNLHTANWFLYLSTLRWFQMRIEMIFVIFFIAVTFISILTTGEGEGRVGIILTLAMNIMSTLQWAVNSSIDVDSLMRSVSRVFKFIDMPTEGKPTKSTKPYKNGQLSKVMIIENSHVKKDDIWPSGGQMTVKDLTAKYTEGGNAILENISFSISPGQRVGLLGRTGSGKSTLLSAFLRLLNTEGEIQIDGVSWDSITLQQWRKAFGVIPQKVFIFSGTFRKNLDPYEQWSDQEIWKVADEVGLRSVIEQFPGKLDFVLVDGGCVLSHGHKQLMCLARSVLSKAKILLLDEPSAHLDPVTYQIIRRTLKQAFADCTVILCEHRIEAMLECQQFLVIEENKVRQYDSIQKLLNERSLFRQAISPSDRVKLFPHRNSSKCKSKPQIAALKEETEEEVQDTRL

Structure (SMILES) | Nauc @ 3 μM | Nauc @ 10 μM
O=C1C2C3CC(=C(F)F)CN3C3(C(=O)Nc4c(Cl)cc(Cl)cc43)C2C(=O)N1c1cc(Cl)cc(Cl)c1 (stereo not drawn) [Example 100] | +++ (NAUC “+++” refers to an observed NAUC >170% of positive control) | +++ (NAUC “+++” refers to an observed NAUC >170% of positive control)
Cc1csc(N2C(=O)C3C4CCCN4C4(C(=O)Nc5c(Cl)cc(Cl)cc54)C3C2=O)n1 (stereo not drawn) [Example 101] | + (NAUC “+” refers to an observed NAUC <140% of positive control) | +++ (NAUC “+++” refers to an observed NAUC >170% of positive control)
O=C1C2C3CCCN3C3(C(=O)Nc4ccc(C(F)(F)F)cc43)C2C(=O)N1c1cc(Cl)cc(Cl)n1 (stereo not drawn) [Example 102] | + (NAUC “+” refers to an observed NAUC <140% of positive control) | ++ (NAUC “++” refers to an observed NAUC 170-140% of positive control)
CC1(C)CC2C3C(=O)N(c4cc(Cl)cc(Cl)c4)C(=O)C3C3(C(=O)Nc4c(Cl)cc(Cl)cc43)N2C1 (stereo not drawn) [Example 103] | ++ (NAUC “++” refers to an observed NAUC 170-140% of positive control) | +++ (NAUC “+++” refers to an observed NAUC >170% of positive control)
O=C1C2C3C[C@H](CF)CN3C3(C(=O)Nc4c(Cl)cc(Cl)cc43)C2C(=O)N1c1cc(Cl)cc(Cl)c1 (stereo partly drawn) [Example 109] | ++ (NAUC “++” refers to an observed NAUC 170-140% of positive control) | ++ (NAUC “++” refers to an observed NAUC 170-140% of positive control)
COc1cccc(N2C(=O)C3C4C[C@H](Cl)CN4C4(C(=O)Nc5c(Cl)cc(Cl)cc54)C3C2=O)c1 (stereo partly drawn) [Example 113] | + (NAUC “+” refers to an observed NAUC <140% of positive control) | ++ (NAUC “++” refers to an observed NAUC 170-140% of positive control)
COc1cc(Cl)cc(N2C(=O)C3C4CC(=C(F)F)CN4C4(C(=O)Nc5c(Cl)cc(Cl)cc54)C3C2=O)c1 (stereo not drawn) [Example 117] | +++ (NAUC “+++” refers to an observed NAUC >170% of positive control) | +++ (NAUC “+++” refers to an observed NAUC >170% of positive control)
COc1c(Cl)cc(N2C(=O)C3C4CC(=C(F)F)CN4C4(C(=O)Nc5c(Cl)cc(Cl)cc54)C3C2=O)cc1Cl (stereo not drawn) [Example 121] | ++ (NAUC “++” refers to an observed NAUC 170-140% of positive control) | ++ (NAUC “++” refers to an observed NAUC 170-140% of positive control)
O=C1C2C3CC(=C(F)F)CN3C3(C(=O)Nc4c(Cl)cc(Cl)cc43)C2C(=O)N1c1cc(Cl)cc(Cl)n1 (stereo not drawn) [Example 122] | +++ (NAUC “+++” refers to an observed NAUC >170% of positive control) | + (NAUC “+” refers to an observed NAUC <140% of positive control)
O=C1C2C3CC(=C(F)F)CN3C3(C(=O)Nc4c(Cl)cc(Cl)cc43)C2C(=O)N1c1cc(Br)cc(Br)c1 (stereo not drawn) [Example 123] | + (NAUC “+” refers to an observed NAUC <140% of positive control) | +++ (NAUC “+++” refers to an observed NAUC >170% of positive control)
O=C1C2C3CC(=C(F)F)CN3C3(C(=O)Nc4c(Cl)cc(Cl)cc43)C2C(=O)N1c1cc(F)cc(Cl)c1 (stereo not drawn) [Example 124] | + (NAUC “+” refers to an observed NAUC <140% of positive control) | ++ (NAUC “++” refers to an observed NAUC 170-140% of positive control)
O=C1C2C3CC(=C(F)F)CN3C3(C(=O)Nc4c(Cl)cc(Cl)cc43)C2C(=O)N1c1cc(C(F)(F)F)cc(C(F)(F)F)c1 (stereo not drawn) [Example 125] | +++ (NAUC “+++” refers to an observed NAUC >170% of positive control) | + (NAUC “+” refers to an observed NAUC <140% of positive control)
O=C1C2C3CC(=C(F)F)CN3C3(C(=O)Nc4c(Cl)cc(Cl)cc43)C2C(=O)N1c1cccc(C(F)(F)F)c1 (stereo not drawn) [Example 126] | +++ (NAUC “+++” refers to an observed NAUC >170% of positive control) | +++ (NAUC “+++” refers to an observed NAUC >170% of positive control)
COc1cc(Cl)cc(N2C(=O)C3C4CC(C)(C)CN4C4(C(=O)Nc5c(Cl)cc(Cl)cc54)C3C2=O)c1 (stereo not drawn) [Example 127] | ++ (NAUC “++” refers to an observed NAUC 170-140% of positive control) | + (NAUC “+” refers to an observed NAUC <140% of positive control)
Cc1ccc(N2C(=O)C3C4CCCN4C4(C(=O)Nc5c(C)cccc54)C3C2=O)c(Cl)c1 (stereo not drawn) [Example 128] | ++ (NAUC “++” refers to an observed NAUC 170-140% of positive control) | + (NAUC “+” refers to an observed NAUC <140% of positive control)
CC1(C)CC2C3C(=O)N(c4cc(Cl)cc(Cl)n4)C(=O)C3C3(C(=O)Nc4c(Cl)cc(Cl)cc43)N2C1 (stereo not drawn) [Example 129] | ++ (NAUC “++” refers to an observed NAUC 170-140% of positive control) | ++ (NAUC “++” refers to an observed NAUC 170-140% of positive control)
COc1cc(Cl)cc(N2C(=O)C3C4CC(C(F)F)CN4C4(C(=O)Nc5c(Cl)cc(Cl)cc54)C3C2=O)c1 (stereo not drawn) [Example 130] | + (NAUC “+” refers to an observed NAUC <140% of positive control) | ++ (NAUC “++” refers to an observed NAUC 170-140% of positive control)
O=C1C2C3CC(C(F)F)CN3C3(C(=O)Nc4c(Cl)cc(Cl)cc43)C2C(=O)N1c1cc(Cl)cc(Cl)n1 (stereo not drawn) [Example 131] | + (NAUC “+” refers to an observed NAUC <140% of positive control) | ++ (NAUC “++” refers to an observed NAUC 170-140% of positive control)
O=C1C2C3CC(C(F)F)CN3C3(C(=O)Nc4c(Cl)cc(Cl)cc43)C2C(=O)N1c1cc(Cl)nc(Cl)c1 (stereo not drawn) [Example 132] | + (NAUC “+” refers to an observed NAUC <140% of positive control) | ++ (NAUC “++” refers to an observed NAUC 170-140% of positive control)
O=C1C2C3CC(C(F)F)CN3C3(C(=O)Nc4c(Cl)cc(Cl)cc43)C2C(=O)N1c1cc(F)cc(Cl)c1 (stereo not drawn) [Example 133] | ++ (NAUC “++” refers to an observed NAUC 170-140% of positive control) | ++ (NAUC “++” refers to an observed NAUC 170-140% of positive control)
O=C1C2C3CC(C(F)F)CN3C3(C(=O)Nc4c(Cl)cc(Cl)cc43)C2C(=O)N1c1cccc(C(F)(F)F)c1 (stereo not drawn) [Example 134] | + (NAUC “+” refers to an observed NAUC <140% of positive control) | ++ (NAUC “++” refers to an observed NAUC 170-140% of positive control)
CC(=O)N[C@H]1CC2C3C(=O)N(c4cc(Cl)cc(Cl)c4)C(=O)C3C3(C(=O)Nc4c(Cl)cc(Cl)cc43)N2C1 (stereo partly drawn) [Example 135] | +++ (NAUC “+++” refers to an observed NAUC >170% of positive control) | + (NAUC “+” refers to an observed NAUC <140% of positive control)
O=C1C2C3CC(C(F)F)CN3C3(C(=O)Nc4c(Cl)cc(Cl)cc43)C2C(=O)N1c1cc(Cl)cc(Cl)c1 (stereo not drawn) [Example 136] | +++ (NAUC “+++” refers to an observed NAUC >170% of positive control) | +++ (NAUC “+++” refers to an observed NAUC >170% of positive control)
O=C1C2C3CC(C(F)F)CN3C3(C(=O)Nc4c(Cl)cc(Cl)cc43)C2C(=O)N1c1cc(Cl)cc(Cl)c1 (stereo not drawn) [Example 137] | +++ (NAUC “+++” refers to an observed NAUC >170% of positive control) | +++ (NAUC “+++” refers to an observed NAUC >170% of positive control)
[2H]C12C(=O)N(c3cc(Cl)cc(OC)c3)C(=O)C1([2H])C1(C(=O)Nc3c(Cl)cc(Cl)cc31)N1C[C@@H](F)CC12 (stereo partly drawn) [Example 145] | + (NAUC “+” refers to an observed NAUC <140% of positive control) | +++ (NAUC “+++” refers to an observed NAUC >170% of positive control)
[2H]C12C(=O)N(c3cc(Cl)cc(OC)c3)C(=O)C1([2H])C1(C(=O)Nc3c(Cl)cc(Cl)cc31)N1C[C@@H](Cl)CC12 (stereo partly drawn) [Example 146] | +++ (NAUC “+++” refers to an observed NAUC >170% of positive control) | +++ (NAUC “+++” refers to an observed NAUC >170% of positive control)
[2H]C12C(=O)N(c3cc(Cl)cc(Cl)c3)C(=O)C1([2H])C1(C(=O)Nc3c(Cl)cc(Cl)cc31)N1CC(C)(C)CC12 (stereo not drawn) [Example 147] | +++ (NAUC “+++” refers to an observed NAUC >170% of positive control) | +++ (NAUC “+++” refers to an observed NAUC >170% of positive control)
[2H]C12C(=O)N(c3cc(Cl)c(OC)c(Cl)c3)C(=O)C1([2H])C1(C(=O)Nc3c(Cl)cc(Cl)cc31)N1C[C@@H](Cl)CC12 (stereo partly drawn) [Example 148] | +++ (NAUC “+++” refers to an observed NAUC >170% of positive control) | +++ (NAUC “+++” refers to an observed NAUC >170% of positive control)
[2H]C12C(=O)N(c3cc(Cl)c(OC)c(Cl)c3)C(=O)C1([2H])C1(C(=O)Nc3c(Cl)cc(Cl)cc31)N1CC(C)(C)CC12 (stereo not drawn) [Example 149] | +++ (NAUC “+++” refers to an observed NAUC >170% of positive control) | +++ (NAUC “+++” refers to an observed NAUC >170% of positive control)
O=C(O)c1cccc(C2C3C(=O)N(c4cc(Cl)cc(Cl)c4)C(=O)C3C3CCCN32)c1 (stereo not drawn) [Example 150] | + (NAUC “+” refers to an observed NAUC <140% of positive control) | ++ (NAUC “++” refers to an observed NAUC 170-140% of positive control)
